# Source: patent publication US20200017549A1, “NOVEL a4B7 PEPTIDE ANTAGONISTS” (Protagonist Therapeutics, Inc., priority 2013, published 2020)
# Bridge positions count the residues as written; N and C are the ends. Square brackets hold non-standard residues; d marks the D form. Peptide text beside a SMILES is read from it. NMeR = CN[C@@H](CCCNC(=N)N)C(=O)O; Pen = CC(C)(S)[C@H](N)C(=O)O
# Test: Simulated Intestinal Fluid (SIF) Stability Assay
# Format: in vitro ADME
# Details: for stability in simulated intestinal fluids (SIF): Cys substituted with Pen, compared to SEQ ID NO: 46 with Cys
# Procedure: Simulated Intestinal Fluid (SIF) Stability Assay
# Studies were carried out in simulated intestinal fluid (SIF) to evaluate gastric stability of the peptide molecules of the instant invention. SIF was prepared by adding 6.8 g of monobasic potassium phosphate and 10.0 g of pancreatin to 1.0 L of water. After dissolution, the pH was adjusted to 6.8 using NaOH. DMSO stocks (2 mM) were first prepared for the test compounds. Aliquots of the DMSO solutions were dosed into 6 individual tubes, each containing 0.5 mL of SIF, which had been pre-warmed to 37° C.
# The final test compound concentration was 20 μM. The vials were kept in a benchtop Thermomixer® for the duration of the experiment. At each time point (0, 5, 10, 20, 40, and 60 minutes), 1.0 mL of acetonitrile containing 1% formic acid was added to one vial to terminate the reaction. Samples were stored at 4° C. until the end of the experiment. After the final timepoint was sampled, the tubes were mixed and then centrifuged at 3,000 rpm for 10 minutes. Aliquots of the supernatant were removed, diluted 1:1 into distilled water containing internal standard, and analyzed by LCMS/MS. Percent remaining at each time point was calculated based on the peak area response ratio of test to compound to internal standard. Time 0 was set to 100%, and all later time points were calculated relative to time 0. Half-lives were calculated by fitting to a first-order exponential decay equation using GraphPad. A small sampling of the results of these studies is provided and discussed in connection FIG. 3, above.
smiles,measurement,setting,value
CC(=O)N[C@H]1CSSC[C@@H](C(N)=O)NC(=O)[C@H](CC(C)C)NC(=O)[C@H]([C@@H](C)O)NC(=O)[C@H](CC(=O)O)NC(=O)[C@H](CO)NC(=O)[C@H](CCCNC(=N)N)N(C)C1=O [SEQ ID NO: 46] (Ac-C[NMeR]SDTLC-NH2; disulfide 1-7),half-life in SIF,"simulated intestinal fluid, pH 6.8, 37° C., N-Me-Arg substituted versus non-methylated variation",increased half-life substantially
CC(=O)N[C@H]1CSSC(C)(C)[C@@H](C(=O)N[C@H](CCCCN)C(N)=O)NC(=O)[C@H](CC(C)C)NC(=O)[C@H]([C@@H](C)O)NC(=O)[C@H](CC(=O)O)NC(=O)[C@H](CO)NC(=O)[C@H](CCCNC(=N)N)N(C)C1=O [SEQ ID NO: 55] (Ac-C[NMeR]SDTL[Pen][dK]-NH2; disulfide 1-7),stability in simulated intestinal fluids (SIF),,increased stability significantly
CC(=O)N[C@H]1CSSC(C)(C)[C@@H](C(=O)N[C@@H](CCC(=O)O)C(=O)N[C@H](CCCCN)C(N)=O)NC(=O)[C@H](CC(C)C)NC(=O)[C@H]([C@@H](C)O)NC(=O)[C@H](CC(=O)O)NC(=O)[C@H](CO)NC(=O)[C@H](CCCNC(=N)N)N(C)C1=O [SEQ ID NO: 74] (Ac-C[NMeR]SDTL[Pen]E[dK]-NH2; disulfide 1-7),stability in simulated intestinal fluids (SIF),,increased stability significantly
CC(=O)N[C@@H]1C(=O)N(C)[C@@H](CCCNC(=N)N)C(=O)N[C@@H](CO)C(=O)N[C@@H](CC(=O)O)C(=O)N[C@@H]([C@@H](C)O)C(=O)N[C@@H](CC(C)C)C(=O)N[C@H](C(=O)N[C@H](CCCCN)C(N)=O)C(C)(C)SSC1(C)C [SEQ ID NO: 93] (Ac-[Pen][NMeR]SDTL[Pen][dK]-NH2; disulfide 1-7),stability in simulated intestinal fluids (SIF),,increased stability significantly
